The subject of data set [1] is Mesenchymal stem cells. The data set can be described thus: Cytotoxicity against human BMMSC cells assessed as effect on cell viability upto 1 uM incubated for 24 hrs by CCK8 assay. Format: toxicity, cell-based. A general note: Tetrazolium dyes change colour on reduction, which living cells bring about.
Data set [2] relates to DNA. The data set can be described thus: Binding affinity to N-terminal of 10-mer c-DNA (unknown origin) assessed as melting temperature at 4 uM by UV-Vis spectrophotometric analysis. Type of data set: nucleic-acid assay.
Data set [3] deals with DNA. In words: Binding affinity to C-terminal of 10-mer c-DNA (unknown origin) assessed as melting temperature at 4 uM by UV-Vis spectrophotometric analysis. Format: nucleic-acid assay.
For data set [4], the system named is Mesenchymal stem cells. The data set can be described thus: Inhibition of SULF2 mRNA expression in human BMMSC cells at 0.1 uM by RT-qPCR analysis. Type of data set: functional, cell-based. (Real-time PCR tracks product formation cycle by cycle.)
For data set [5], the system named is Mesenchymal stem cells. The data set can be described thus: Inhibition of SULF2 mRNA expression in human BMMSC cells by RT-qPCR analysis. Type of data set: functional, cell-based. The conditions noted are these: dose 0.01-1 µM.
The test system of data set [6] is Mesenchymal stem cells. The data set can be described thus: Anti-adipogenic activity in insulin/dexamthasone/pioglitazone/IBMX differentiated human BMMSC cells assessed as downregulation of adiponectin protein secretion at 1 uM by ELISA. Format: functional, cell-based. A general note: An ELISA detects its analyte on a solid surface through an enzyme-linked reagent.

The subject of data set [7] is Mesenchymal stem cells. In words: Anti-adipogenic activity in insulin/dexamthasone/pioglitazone/IBMX differentiated human BMMSC cells assessed as downregulation of adiponectin protein secretion by ELISA. Format: functional, cell-based.
Data set [8] relates to Mesenchymal stem cells. The data set can be described thus: Effect on osteogenesis in ascorbic acid/dexamethasone/beta-glycerol phosphate differentiated human BMMSC cells. Format: functional, cell-based.
Data set [9] can be described thus: Drug penetration in human BMMSC cells assessed as green fluorescence signal at 0.1 uM incubated for 24 hrs by DAPI staining based confocal microscopic analysis. Type of data set: ADME, cell-based. The following applies: mesenchymal stem cells.
Data set [10] concerns Mesenchymal stem cells. The data set can be described thus: Anti-adipogenic activity in insulin/dexamthasone/pioglitazone/IBMX differentiated human BMMSC cells assessed as decrease in size of intracellular lipid droplets by Oil red O staining based inverted microscopic analysis. Type of data set: functional, cell-based. The following applies: dose 0.01-1 µM.
The subject of data set [11] is Mesenchymal stem cells. In words: Anti-adipogenic activity in insulin/dexamthasone/pioglitazone/IBMX differentiated human BMMSC cells assessed as decrease in number of intracellular lipid droplets by Oil red O staining based inverted microscopic analysis. Format: functional, cell-based. The following applies: dose 0.01-1 µM.
Data set [12] has as its system DNA. The data set can be described thus: Binding affinity to c-DNA (unknown origin) with mismatch bases assessed as increase in melting temperature by UV-vis spectrophotometric analysis. Format: nucleic-acid assay.
Data set [13] has as its system DNA. The data set can be described thus: Binding affinity to 10-mer DNA (unknown origin) assessed as melting temperature at 4 uM by UV-Vis spectrophotometric analysis. Format: nucleic-acid assay.

Calls of active or inactive are those of the source. The calls are words filed in the database; no cut-off is given here. Some results are limits rather than exact numbers.

The values that follow come from ChEMBL document CHEMBL6120982, “Cell-penetrating anti-sense peptide nucleic acids targeting sulfatase 2 inhibit adipogenesis in human mesenchymal stem cells” (Bioorg Med Chem, 2024).

`Cc1cn(CC(=O)N(CCNC(=O)CN(CCNC(=O)CN(CCNC(=O)CN(CCNC(=O)CN(CCNC(=O)CN(CCNC(=O)CN(CCNC(=O)CN(CCNC(=O)CN(CCNC(=O)CN(CCNC(=O)CN(CCNC(=O)CN(CCNC(=O)CN(CCNC(=O)CN(CCNC(=O)CN(CCNC(=O)CN(CCNC(=O)CN(CCNC(=O)OCCC2c3ccccc3-c3ccccc32)C(=O)Cn2cnc3c(=O)[nH]c(N)nc32)C(=O)Cn2cnc3c(=O)[nH]c(NCCCCCCN)nc32)C(=O)Cn2cnc3c(=O)[nH]c(N)nc32)C(=O)Cn2ccc(N)nc2=O)C(=O)Cn2cnc3c(N)nc(NCCCCCN)nc32)C(=O)Cn2cnc3c(=O)[nH]c(N)nc32)C(=O)Cn2ccc(N)nc2=O)C(=O)Cn2cnc3c(N)ncnc32)C(=O)Cn2ccc(N)nc2=O)C(=O)Cn2cnc3c(N)nc(NCCCCCN)nc32)C(=O)Cn2cc(C)c(=O)[nH]c2=O)C(=O)Cn2cnc3c(=O)[nH]c(N)nc32)C(=O)Cn2cnc3c(=O)[nH]c(N)nc32)C(=O)Cn2cnc3c(=O)[nH]c(NCCCCCCN)nc32)C(=O)Cn2cc(C)c(=O)[nH]c2=O)C(=O)Cn2cnc3c(=O)[nH]c(N)nc32)CC(N)=O)c(=O)[nH]c1=O`: in the data set with Mesenchymal stem cells [1], the Activity entry was “Non-toxic”. Moreover, the figures for the Tm in the data set with DNA [2] and with DNA [3] were 83.5 °C and 75.5 °C, respectively. Further, the inhibition result with Mesenchymal stem cells [4] was “Active”. Further, the inhibition entry with Mesenchymal stem cells [5] is “Dose-dependent-effect”. The result in the data set on Mesenchymal stem cells [6] was Active. Besides, the IC50 (in general, the concentration needed to halve the response being measured) in the data set with Mesenchymal stem cells [7] was > 1000 nM. Besides, in the data set on Mesenchymal stem cells [8], the result was inactive.
As for `O=C(O)c1ccc2c(c1)C(=O)OC21c2ccc(O)cc2Oc2cc(O)ccc21`, the Drug uptake entry in data set [9] is “Active”.
For `Cc1cn(CC(=O)N(CCNC(=O)CN(CCNC(=O)CN(CCNC(=O)CN(CCNC(=O)CN(CCNC(=O)CN(CCNC(=O)CN(CCNC(=O)CN(CCNC(=O)CN(CCNC(=O)CN(CCNC(=O)CN(CCNC(=O)OCCC2c3ccccc3-c3ccccc32)C(=O)Cn2cc(C)c(=O)[nH]c2=O)C(=O)Cn2cnc3c(=O)[nH]c(N)nc32)C(=O)Cn2cnc3c(=O)[nH]c(N)nc32)C(=O)Cn2cnc3c(N)nc(NCCCCCN)nc32)C(=O)Cn2cnc3c(=O)[nH]c(N)nc32)C(=O)Cn2cnc3c(=O)[nH]c(N)nc32)C(=O)Cn2cnc3c(N)nc(NCCCCCN)nc32)C(=O)CN2C=NC3C(=O)NC(N)=NC32)C(=O)Cn2ccc(N)nc2=O)C(=O)Cn2cnc3c(=O)[nH]c(NCCCCCCN)nc32)CC(=O)NCCN(CC(=O)NCCN(CC(=O)NCCN(CC(=O)NCCN(CC(=O)NCCN(CC(=O)NCCN(CC(=O)NCCN(CC(=O)NCCN(CC(=O)NCCN(N)C(=O)Cn2cnc3c(=O)[nH]c(N)nc32)C(=O)Cn2cnc3c(N)nc(NCCCCCN)nc32)C(=O)Cn2ccc(N)nc2=O)C(=O)Cn2cnc3c(N)ncnc32)C(=O)Cn2cnc3c(N)ncnc32)C(=O)Cn2cnc3c(=O)[nH]c(NCCCCCCN)nc32)C(=O)Cn2cnc3c(=O)[nH]c(N)nc32)C(=O)Cn2cnc3c(N)ncnc32)C(=O)Cn2cnc3c(=O)[nH]c(N)nc32)c(=O)[nH]c1=O` (centres undefined), the Activity result was “Non-toxic” with Mesenchymal stem cells [1], “Dose-dependent-effect” in the data set with Mesenchymal stem cells [7], “Dose-dependent-effect” with Mesenchymal stem cells [10] and “Dose-dependent-effect” in the data set with Mesenchymal stem cells [11]. Moreover, the Tm in the data set on DNA [2] came to 68.1 °C; with DNA [3], 64 °C. Besides, the inhibition entry in the data set with Mesenchymal stem cells [4] is “Active”. In addition, the inhibition result in the data set on Mesenchymal stem cells [5] is “Dose-dependent-effect”. The outcome in the data set on Mesenchymal stem cells [6] was Active. For the same molecule, the IC50 in the data set with Mesenchymal stem cells [7] came to 280 nM. For the same molecule, in the data set with Mesenchymal stem cells [8], the outcome was inactive.
As for `NCCCCCNc1nc(N)c2ncn(CC(=O)N(CCNC(=O)CN(CCNC(=O)CN(CCNC(=O)CN(CCN)C(=O)Cn3cnc4c(N)ncnc43)C(=O)Cn3cnc4c(=O)[nH]c(N)nc43)C(=O)Cn3ccc(N)nc3=O)CC(=O)NCCN(CC(=O)NCCN(CC(=O)NCCN(CC(=O)NCCN(CC(=O)NCCN(CC(=O)NCCN(CC(N)=O)C(=O)Cn3cnc4c(N)ncnc43)C(=O)Cn3ccc(N)nc3=O)C(=O)Cn3cnc4c(N)nc(NCCCCCN)nc43)C(=O)Cn3cnc4c(=O)[nH]c(N)nc43)C(=O)Cn3cnc4c(N)nc(NCCCCCN)nc43)C(=O)Cn3ccc(N)nc3=O)c2n1`, the outcome in the data set with DNA [12] was inactive. Besides, in the data set on DNA [13], the Tm turned out to be 73.6 °C.
As to `Cc1cn(CC(=O)N(CCNC(=O)CN(CCNC(=O)CN(CCNC(=O)CN(CCNC(=O)CN(CCNC(=O)CN(CCNC(=O)CN(CCNC(=O)CN(CCNC(=O)CN(CCNC(=O)CN(CCNC(=O)CN(CCNC(=O)CN(CCNC(=O)CN(CCNC(=O)CN(CCNC(=O)CN(CCNC(=O)CN(CCNC(=O)CN(CCNC(=O)CN(CCNC(=O)CN(CCNC(=O)OCCC2c3ccccc3-c3ccccc32)C(=O)Cn2ccc(N)nc2=O)C(=O)Cn2cc(C)c(=O)[nH]c2=O)C(=O)Cn2cc(C)c(=O)[nH]c2=O)C(=O)Cn2cc3cc(COCCN)[nH]c3nc2=O)C(=O)Cn2cc(C)c(=O)[nH]c2=O)C(=O)Cn2cc(C)c(=O)[nH]c2=O)C(=O)Cn2cc(C)c(=O)[nH]c2=O)C(=O)Cn2cc(C)c(=O)[nH]c2=O)C(=O)Cn2cc(C)c(=O)[nH]c2=O)C(=O)Cn2cc(C)c(=O)[nH]c2=O)C(=O)Cn2cc(C)c(=O)[nH]c2=O)C(=O)Cn2cnc3c(=O)[nH]c(NCCCCCCN)nc32)C(=O)Cn2ccc(N)nc2=O)C(=O)Cn2cc(C)c(=O)[nH]c2=O)C(=O)Cn2cnc3c(=O)[nH]c(N)nc32)C(=O)Cn2cnc3c(N)nc(NCCCCCN)nc32)C(=O)Cn2cc(C)c(=O)[nH]c2=O)C(=O)Cn2ccc(N)nc2=O)CC(=O)NCCN(CC(N)=O)C(=O)Cn2cnc3c(=O)[nH]c(NCCCCCCN)nc32)c(=O)[nH]c1=O`, the Activity entry with Mesenchymal stem cells [1] is on record as “Non-toxic”. Besides, the Tm in the data set with DNA [3] amounted to 70 °C. Also, the values for the inhibition result in the data set on Mesenchymal stem cells [4] and with Mesenchymal stem cells [5] were “Mild_effect” and “Dose-dependent-effect”, respectively. Moreover, the result in the data set on Mesenchymal stem cells [6] was Active. In addition, in the data set on Mesenchymal stem cells [7], the IC50 was > 1000 nM. For the same molecule, in the data set on Mesenchymal stem cells [8], the outcome was inactive.
